{"source": "patent US20260102359A1", "about": "“COMBINATION TREATMENT OF DERMAL AND TRANSDERMAL FIBROTIC DISEASES, DISORDERS AND ASSOCIATED PAIN AND INFLAMMATION” (ERESINA, LLC, priority 2022, published 2026)", "note": "Where a name gives a salt, the structure may show the parent alone."}
{"tested_on": "hDMFa myofibroblast cells"}
{"smiles": "C[C@H](CCC(=O)O)[C@H]1CC[C@H]2[C@@H]3[C@H](O)C[C@@H]4C[C@H](O)CC[C@]4(C)[C@H]3CC[C@]12C", "note": "[Cmpd 245, Chenodeoxycholic Acid]", "Compound Myofibroblast Cytotoxicity Activity": "+++"}
{"smiles": "CC(=O)O.CC(=O)O.NC(=N\\CCCCCC/N=C(N)/N=C(\\N)Nc1ccc(Cl)cc1)/N=C(\\N)Nc1ccc(Cl)cc1", "note": "[Cmpd 247, Chlorhexidine diacetate]", "Compound Myofibroblast Cytotoxicity Activity": "+++++"}
{"smiles": "N=C(NCCCCCCNC(=N)NC(=N)Nc1ccc(Cl)cc1)NC(=N)Nc1ccc(Cl)cc1.O=C(O)[C@H](O)[C@@H](O)[C@H](O)[C@H](O)CO.O=C(O)[C@H](O)[C@@H](O)[C@H](O)[C@H](O)CO", "note": "[Cmpd 248, Chlorhexidine digluconate]", "Compound Myofibroblast Cytotoxicity Activity": "+++"}
{"smiles": "[H]/N=C(\\N/C(=N/[H])NCCCCCCNC(=N)NC(=N)Nc1ccc(Cl)cc1)Nc1ccc(Cl)cc1", "note": "[Cmpd 249, Chlorhexidine HCl]", "Compound Myofibroblast Cytotoxicity Activity": "+++++"}
{"smiles": "CN(C)CCN(Cc1ccc(Cl)cc1)c1ccccn1", "note": "[Cmpd 250, Chloropyramine hydrochloride]", "Compound Myofibroblast Cytotoxicity Activity": "++"}
{"smiles": "Oc1c(Cl)cc(Cl)c2cccnc12", "note": "[Cmpd 251, Chloroxine]", "Compound Myofibroblast Cytotoxicity Activity": "++++"}
{"smiles": "CN(C)CCCN1c2ccccc2Sc2ccc(Cl)cc21", "note": "[Cmpd 253, Chlorpromazine HCl]", "Compound Myofibroblast Cytotoxicity Activity": "+++"}
{"smiles": "CN(C)CC/C=C1/c2ccccc2Sc2ccc(Cl)cc21", "note": "[Cmpd 254, Chlorprothixene]", "Compound Myofibroblast Cytotoxicity Activity": "+++"}
{"smiles": "CN(C)[C@@H]1C(O)=C(C(N)=O)C(=O)[C@@]2(O)C(O)=C3C(=O)c4c(O)ccc(Cl)c4[C@@](C)(O)[C@H]3C[C@@H]12", "note": "[Cmpd 256, Chlortetracycline HCl]", "Compound Myofibroblast Cytotoxicity Activity": "++"}
{"smiles": "C[N+](C)(C)CCO.O=C([O-])C(O)C(O)C(=O)O", "note": "(stereo not shown) [Cmpd 257, Choline bitartrate]", "Compound Myofibroblast Cytotoxicity Activity": "+++"}
{"smiles": "Cc1cc(C2CCCCC2)n(O)c(=O)c1", "note": "[Cmpd 258, Ciclopirox]", "Compound Myofibroblast Cytotoxicity Activity": "++++"}
{"smiles": "Cc1cc(C2CCCCC2)n(O)c(=O)c1.NCCO", "note": "[Cmpd 259, Ciclopirox ethanolamine]", "Compound Myofibroblast Cytotoxicity Activity": "+++"}
{"smiles": "CC1(C)C[C@@H]1C(=O)N/C(=C\\CCCCSC[C@H](N)C(=O)O)C(=O)O", "note": "[Cmpd 260, Cilastatin]", "Compound Myofibroblast Cytotoxicity Activity": "++++"}
{"smiles": "O=C(O)c1cc(-c2ccccc2)nc2ccccc12", "note": "[Cmpd 265, Cinchophen]", "Compound Myofibroblast Cytotoxicity Activity": "++"}
{"smiles": "O=C(O)C=Cc1ccccc1", "note": "[Cmpd 266, Cinnamic acid]", "Compound Myofibroblast Cytotoxicity Activity": "++"}
{"smiles": "O=C(O)c1cn(C2CC2)c2cc(N3CCNCC3)c(F)cc2c1=O", "note": "[Cmpd 268, Ciprofloxacin (hydrochloride)]", "Compound Myofibroblast Cytotoxicity Activity": "++"}
{"smiles": "C[N+](C)(C)CCOP(=O)(O)OP(=O)([O-])OC[C@H]1O[C@@H](n2ccc(N)nc2=O)[C@H](O)[C@@H]1O", "note": "[Cmpd 271, Citicoline (sodium salt)]", "Compound Myofibroblast Cytotoxicity Activity": "+++"}
{"smiles": "O=C(O)CC(O)(CC(=O)O)C(=O)O", "note": "[Cmpd 273, Citric acid]", "Compound Myofibroblast Cytotoxicity Activity": "++++"}
{"smiles": "CC[C@H]1OC(=O)[C@H](C)[C@@H](O[C@H]2C[C@@](C)(OC)[C@@H](O)[C@H](C)O2)[C@H](C)[C@@H](O[C@@H]2O[C@H](C)C[C@H](N(C)C)[C@H]2O)[C@](C)(OC)C[C@@H](C)C(=O)[C@H](C)[C@@H](O)[C@]1(C)O", "note": "[Cmpd 274, Clarithromycin]", "Compound Myofibroblast Cytotoxicity Activity": "+++"}
{"smiles": "Clc1ccc(Cn2c(CN3CCCC3)nc3ccccc32)cc1", "note": "[Cmpd 277, Clemizole hydrochloride]", "Compound Myofibroblast Cytotoxicity Activity": "++"}
{"smiles": "CC(C)(C)NCC(O)c1cc(Cl)c(N)c(Cl)c1", "note": "(stereo not shown) [Cmpd 278, Clenbuterol (hydrochloride)]", "Compound Myofibroblast Cytotoxicity Activity": "++"}
{"smiles": "CCCC(=O)OCOC(=O)C1=C(C)NC(C)=C(C(=O)OC)C1c1cccc(Cl)c1Cl", "note": "(stereo not shown) [Cmpd 279, Clevidipine Butyrate]", "Compound Myofibroblast Cytotoxicity Activity": "++"}
{"smiles": "Oc1c(I)cc(Cl)c2cccnc12", "note": "[Cmpd 281, Clioquinol]", "Compound Myofibroblast Cytotoxicity Activity": "++"}
{"smiles": "O=P(O)(O)C(Cl)(Cl)P(=O)(O)O", "note": "[Cmpd 282, Clodronate (sodium salt hydrate)]", "Compound Myofibroblast Cytotoxicity Activity": "+++"}
{"smiles": "CC(C)/N=c1\\cc2n(-c3ccc(Cl)cc3)c3ccccc3nc-2cc1Nc1ccc(Cl)cc1", "note": "[Cmpd 283, Clofazimine]", "Compound Myofibroblast Cytotoxicity Activity": "++"}
{"smiles": "CCN(CC)CCOc1ccc(C(=C(Cl)c2ccccc2)c2ccccc2)cc1", "note": "[Cmpd 284, Clomiphene citrate]", "Compound Myofibroblast Cytotoxicity Activity": "+++"}
{"smiles": "CN(C)CCCN1c2ccccc2CCc2ccc(Cl)cc21", "note": "[Cmpd 285, Clomipramine HCl]", "Compound Myofibroblast Cytotoxicity Activity": "++"}
{"smiles": "Cc1cc(C(C#N)c2ccc(Cl)cc2)c(Cl)cc1NC(=O)c1cc(I)cc(I)c1[O-].[Na+]", "note": "(stereo not shown) [Cmpd 288, Closantel Sodium]", "Compound Myofibroblast Cytotoxicity Activity": "+++"}
{"smiles": "Clc1ccccc1C(c1ccccc1)(c1ccccc1)n1ccnc1", "note": "[Cmpd 289, Clotrimazole]", "Compound Myofibroblast Cytotoxicity Activity": "+++"}
{"smiles": "O=C(c1ccc(F)c(F)c1Nc1ccc(I)cc1F)N1CC(O)([C@@H]2CCCCN2)C1", "note": "[Cmpd 290, Cobimetinib]", "Compound Myofibroblast Cytotoxicity Activity": "++++"}
{"smiles": "C=C1C(=O)O[C@@H]2/C=C(\\C)CC/C=C(\\C)CC[C@@H]12", "note": "[Cmpd 292, Costunolide]", "Compound Myofibroblast Cytotoxicity Activity": "+++"}
{"smiles": "CN(CC(=O)O)C(=N)N.O", "note": "[Cmpd 295, Creatine monohydrate]", "Compound Myofibroblast Cytotoxicity Activity": "++"}
{"smiles": "CC1(COc2ccc3c(c2)ncn3-c2ccc3cccc(N4CCC(N)CC4)c3n2)COC1", "note": "[Cmpd 296, Crenolanib (CP-868596)]", "Compound Myofibroblast Cytotoxicity Activity": "+++++"}
{"smiles": "CC=CC(=O)N(CC)c1ccccc1C", "note": "[Cmpd 298, Crotamiton]", "Compound Myofibroblast Cytotoxicity Activity": "++"}
{"smiles": "CN(C)c1ccc(C(=C2C=CC(=[N+](C)C)C=C2)c2ccc(N(C)C)cc2)cc1", "note": "[Cmpd 299, Crystal Violet]", "Compound Myofibroblast Cytotoxicity Activity": "+++"}
{"smiles": "CC1CC(OC(=O)C(O)c2ccccc2)CC(C)(C)C1", "note": "(stereo not shown) [Cmpd 301, Cyclandelate]", "Compound Myofibroblast Cytotoxicity Activity": "+++"}
{"smiles": "Nc1cc[nH]c(=O)n1", "note": "[Cmpd 304, Cytosine]", "Compound Myofibroblast Cytotoxicity Activity": "++"}
{"smiles": "O=C(CO)[C@@H](O)[C@H](O)[C@H](O)CO", "note": "[Cmpd 305, D-(−)-Fructose]", "Compound Myofibroblast Cytotoxicity Activity": "++"}
{"smiles": "OC[C@H]1O[C@H](OC[C@H]2O[C@H](O[C@]3(CO)O[C@H](CO)[C@@H](O)[C@@H]3O)[C@H](O)[C@@H](O)[C@@H]2O)[C@H](O)[C@@H](O)[C@H]1O", "note": "[Cmpd 308, D-(+)-Raffinose (hydrate)]", "Compound Myofibroblast Cytotoxicity Activity": "++"}
{"smiles": "CC(C)(C)c1nc(-c2cccc(NS(=O)(=O)c3c(F)cccc3F)c2F)c(-c2ccnc(N)n2)s1.CS(=O)(=O)O", "note": "[Cmpd 311, Dabrafenib Mesylate (GSK-2118436)]", "Compound Myofibroblast Cytotoxicity Activity": "++"}
{"smiles": "COc1cc2ncnc(Nc3ccc(F)c(Cl)c3)c2cc1NC(=O)/C=C/CN1CCCCC1", "note": "[Cmpd 313, Dacomitinib (PF299804, PF299)]", "Compound Myofibroblast Cytotoxicity Activity": "+++"}
{"smiles": "O=C1CN(/N=C/c2ccc(-c3ccc([N+](=O)[O-])cc3)o2)C(O)=N1", "note": "[Cmpd 320, Dantrolene, sodium salt]", "Compound Myofibroblast Cytotoxicity Activity": "++++"}
{"smiles": "CCOc1ccc(Cc2cc([C@@H]3O[C@H](CO)[C@@H](O)[C@H](O)[C@H]3O)ccc2Cl)cc1.C[C@H](O)CO.O", "note": "[Cmpd 321, Dapagliflozin ((2S)-1,2-propanediol,hydrate)]", "Compound Myofibroblast Cytotoxicity Activity": "++"}
{"smiles": "CN(C)[C@@H](CCOc1cccc2ccccc12)c1ccccc1", "note": "[Cmpd 322, Dapoxetine HCl]", "Compound Myofibroblast Cytotoxicity Activity": "++"}
{"smiles": "Cc1nc(Nc2ncc(C(=O)Nc3c(C)cccc3Cl)s2)cc(N2CCN(CCO)CC2)n1", "note": "[Cmpd 326, Dasatinib (BMS-354825)]", "Compound Myofibroblast Cytotoxicity Activity": "+++"}
{"smiles": "Cc1nc(Nc2ncc(C(=O)Nc3c(C)cccc3Cl)s2)cc(N2CCN(CCO)CC2)n1", "note": "[Cmpd 327, Dasatinib hydrochloride]", "Compound Myofibroblast Cytotoxicity Activity": "+++"}
{"smiles": "Cc1nc(Nc2ncc(C(=O)Nc3c(C)cccc3Cl)s2)cc(N2CCN(CCO)CC2)n1.O", "note": "[Cmpd 328, Dasatinib Monohydrate]", "Compound Myofibroblast Cytotoxicity Activity": "+++"}
{"smiles": "COc1cccc2c1C(=O)c1c(O)c3c(c(O)c1C2=O)C[C@@](O)(C(C)=O)C[C@@H]3O[C@H]1C[C@H](N)[C@H](O)[C@H](C)O1", "note": "[Cmpd 329, Daunorubicin HCl]", "Compound Myofibroblast Cytotoxicity Activity": "+++"}
{"smiles": "CCCCCCCCCC(=O)O", "note": "[Cmpd 331, Decanoic acid]", "Compound Myofibroblast Cytotoxicity Activity": "+"}
{"smiles": "C=C1CC[C@@H]2[C@](C)(CO)[C@H](O)CC[C@@]2(C)[C@@H]1/C=C/C1=CCOC1=O", "note": "[Cmpd 334, Dehydroandrographolide]", "Compound Myofibroblast Cytotoxicity Activity": "++"}
{"smiles": "C=C1CC[C@H]2C(=C)CC[C@H]3C(=C)C(=O)O[C@@H]3[C@@H]12", "note": "[Cmpd 336, Dehydrocostus Lactone]", "Compound Myofibroblast Cytotoxicity Activity": "+++++"}
{"smiles": "O=C1O[C@H](CO)[C@@H](O)[C@H](O)[C@H]1O", "note": "[Cmpd 338, delta-Gluconolactone]", "Compound Myofibroblast Cytotoxicity Activity": "++"}
{"smiles": "C[C@H](CCC(=O)O)[C@H]1CC[C@H]2[C@@H]3CC[C@@H]4C[C@H](O)CC[C@]4(C)[C@H]3C[C@H](O)[C@]12C", "note": "[Cmpd 339, Deoxycholic acid sodium salt]", "Compound Myofibroblast Cytotoxicity Activity": "+++++"}
{"smiles": "Cc1cc(N)c2ccccc2[n+]1CCCCCCCCCC[n+]1c(C)cc(N)c2ccccc21", "note": "[Cmpd 340, Dequalinium Chloride]", "Compound Myofibroblast Cytotoxicity Activity": "++"}
{"smiles": "CCCCCCCCCCCCC/C=C/[C@@H](O)[C@@H](N)CO", "note": "[Cmpd 341, D-erythro-Sphingosine (synthetic)]", "Compound Myofibroblast Cytotoxicity Activity": "++"}
{"smiles": "CNCCCN1c2ccccc2CCc2ccccc21.Cl", "note": "[Cmpd 342, Desipramine hydrochloride]", "Compound Myofibroblast Cytotoxicity Activity": "++++"}
{"smiles": "C#C[C@]1(O)CC[C@H]2[C@@H]3CCC4=CCCC[C@@H]4[C@H]3C(=C)C[C@@]21CC", "note": "[Cmpd 344, Desogestrel]", "Compound Myofibroblast Cytotoxicity Activity": "+++"}
{"smiles": "Cc1c(OCC(F)(F)F)ccnc1C[S@@+]([O-])c1nc2ccccc2[nH]1", "note": "[Cmpd 345, Dexlansoprazole]", "Compound Myofibroblast Cytotoxicity Activity": "++"}
{"smiles": "NC(=O)CC[C@@H](N)C(=O)O", "note": "[Cmpd 346, D-Glutamine]", "Compound Myofibroblast Cytotoxicity Activity": "++"}
{"smiles": "CC(=O)Nc1c(I)c(NC(C)=O)c(I)c(C(=O)O)c1I", "note": "[Cmpd 348, Diatrizoic acid]", "Compound Myofibroblast Cytotoxicity Activity": "++"}
{"smiles": "COc1ccc(Cc2cnc(N)nc2N)cc1OC", "note": "[Cmpd 349, Diaveridine]", "Compound Myofibroblast Cytotoxicity Activity": "++"}
